Where two headings read alike, the source gives them in different places. One block for each molecule: values may come before it.
Experiments:
[1] = target: T1, ABL1(Y253F)-phosphorylated (Homo sapiens, UniProt P00519, Y253F); experiment: KINOMEscan ScanTK; type: binding
T1 construct: purchased Eurofins DiscoverX KINOMEscan (scanTK)

AXL = target: T2, AXL (Homo sapiens, UniProt P30530); experiment: KINOMEscan ScanTK; type: binding
T2 construct: purchased Eurofins DiscoverX KINOMEscan (scanTK)
T2 sequence (P30530 26-894): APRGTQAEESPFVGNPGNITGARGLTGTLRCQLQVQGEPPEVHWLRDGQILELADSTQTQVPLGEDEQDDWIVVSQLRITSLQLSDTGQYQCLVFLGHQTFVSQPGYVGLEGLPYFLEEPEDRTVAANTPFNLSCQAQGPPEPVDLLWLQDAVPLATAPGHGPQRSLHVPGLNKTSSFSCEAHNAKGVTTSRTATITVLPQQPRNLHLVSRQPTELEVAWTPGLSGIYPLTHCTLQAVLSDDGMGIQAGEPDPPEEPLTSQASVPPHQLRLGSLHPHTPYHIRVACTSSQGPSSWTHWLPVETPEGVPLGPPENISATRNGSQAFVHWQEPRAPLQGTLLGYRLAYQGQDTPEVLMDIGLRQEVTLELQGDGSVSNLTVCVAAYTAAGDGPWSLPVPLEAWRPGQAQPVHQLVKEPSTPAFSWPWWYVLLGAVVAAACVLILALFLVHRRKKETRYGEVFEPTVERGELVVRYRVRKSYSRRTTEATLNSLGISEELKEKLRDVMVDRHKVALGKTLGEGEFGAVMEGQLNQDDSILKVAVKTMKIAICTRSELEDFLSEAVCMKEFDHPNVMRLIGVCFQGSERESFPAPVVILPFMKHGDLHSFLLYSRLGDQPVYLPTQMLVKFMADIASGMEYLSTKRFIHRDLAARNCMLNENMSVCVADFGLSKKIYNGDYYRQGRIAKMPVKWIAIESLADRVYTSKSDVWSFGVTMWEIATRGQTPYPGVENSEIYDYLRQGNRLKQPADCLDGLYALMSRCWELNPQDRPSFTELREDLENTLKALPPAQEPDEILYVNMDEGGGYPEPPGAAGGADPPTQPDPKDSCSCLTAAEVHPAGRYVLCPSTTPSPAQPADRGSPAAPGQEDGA

BLK = target: T3, BLK (Homo sapiens, UniProt P51451); experiment: KINOMEscan ScanTK; type: binding
T3 construct: purchased Eurofins DiscoverX KINOMEscan (scanTK)
T3 sequence (P51451 whole entry): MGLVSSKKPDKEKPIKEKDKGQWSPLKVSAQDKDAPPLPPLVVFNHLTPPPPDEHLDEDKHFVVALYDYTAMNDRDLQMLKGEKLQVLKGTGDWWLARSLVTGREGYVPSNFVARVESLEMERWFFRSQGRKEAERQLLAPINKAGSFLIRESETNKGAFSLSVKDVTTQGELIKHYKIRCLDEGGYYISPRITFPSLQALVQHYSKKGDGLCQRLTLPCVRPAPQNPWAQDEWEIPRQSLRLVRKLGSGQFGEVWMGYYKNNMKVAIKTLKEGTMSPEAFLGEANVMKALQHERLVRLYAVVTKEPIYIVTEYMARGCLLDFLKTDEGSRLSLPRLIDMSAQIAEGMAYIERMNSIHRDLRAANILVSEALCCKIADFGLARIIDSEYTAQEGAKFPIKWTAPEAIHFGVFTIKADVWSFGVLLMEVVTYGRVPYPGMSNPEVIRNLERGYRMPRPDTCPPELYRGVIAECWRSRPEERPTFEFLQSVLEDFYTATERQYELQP

ERBB3 = target: T4, ERBB3 (Homo sapiens, UniProt P21860); experiment: KINOMEscan ScanTK; type: binding
T4 construct: purchased Eurofins DiscoverX KINOMEscan (scanTK)

FGFR2 = target: T5, FGFR2 (Homo sapiens, UniProt P21802); experiment: KINOMEscan ScanTK; type: binding
T5 construct: purchased Eurofins DiscoverX KINOMEscan (scanTK)

FRK = target: T6, FRK (Homo sapiens, UniProt P42685); experiment: KINOMEscan ScanTK; type: binding
T6 construct: purchased Eurofins DiscoverX KINOMEscan (scanTK)

FYN = target: T7, FYN (Homo sapiens, UniProt P06241); experiment: KINOMEscan ScanTK; type: binding
T7 construct: purchased Eurofins DiscoverX KINOMEscan (scanTK)
T7 sequence (P06241 whole entry): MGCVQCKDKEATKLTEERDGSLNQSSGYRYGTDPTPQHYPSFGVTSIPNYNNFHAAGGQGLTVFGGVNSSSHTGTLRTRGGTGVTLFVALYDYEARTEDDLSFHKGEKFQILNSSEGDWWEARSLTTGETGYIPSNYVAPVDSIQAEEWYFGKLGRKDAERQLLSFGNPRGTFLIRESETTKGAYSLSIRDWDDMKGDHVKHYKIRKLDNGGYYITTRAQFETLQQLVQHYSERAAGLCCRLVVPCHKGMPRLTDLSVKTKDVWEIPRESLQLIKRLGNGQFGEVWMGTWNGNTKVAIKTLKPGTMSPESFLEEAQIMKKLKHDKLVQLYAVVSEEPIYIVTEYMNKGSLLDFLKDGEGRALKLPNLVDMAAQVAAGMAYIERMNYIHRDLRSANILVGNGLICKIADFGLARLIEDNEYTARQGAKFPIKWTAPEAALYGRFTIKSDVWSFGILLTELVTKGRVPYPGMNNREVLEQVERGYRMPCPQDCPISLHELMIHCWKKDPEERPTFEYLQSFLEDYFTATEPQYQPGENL

RET(M918T) = target: T8, RET(M918T) (Homo sapiens, UniProt P07949, M918T); experiment: KINOMEscan ScanTK; type: binding
T8 construct: purchased Eurofins DiscoverX KINOMEscan (scanTK)
T8 sequence (P07949 29-1114 M918T): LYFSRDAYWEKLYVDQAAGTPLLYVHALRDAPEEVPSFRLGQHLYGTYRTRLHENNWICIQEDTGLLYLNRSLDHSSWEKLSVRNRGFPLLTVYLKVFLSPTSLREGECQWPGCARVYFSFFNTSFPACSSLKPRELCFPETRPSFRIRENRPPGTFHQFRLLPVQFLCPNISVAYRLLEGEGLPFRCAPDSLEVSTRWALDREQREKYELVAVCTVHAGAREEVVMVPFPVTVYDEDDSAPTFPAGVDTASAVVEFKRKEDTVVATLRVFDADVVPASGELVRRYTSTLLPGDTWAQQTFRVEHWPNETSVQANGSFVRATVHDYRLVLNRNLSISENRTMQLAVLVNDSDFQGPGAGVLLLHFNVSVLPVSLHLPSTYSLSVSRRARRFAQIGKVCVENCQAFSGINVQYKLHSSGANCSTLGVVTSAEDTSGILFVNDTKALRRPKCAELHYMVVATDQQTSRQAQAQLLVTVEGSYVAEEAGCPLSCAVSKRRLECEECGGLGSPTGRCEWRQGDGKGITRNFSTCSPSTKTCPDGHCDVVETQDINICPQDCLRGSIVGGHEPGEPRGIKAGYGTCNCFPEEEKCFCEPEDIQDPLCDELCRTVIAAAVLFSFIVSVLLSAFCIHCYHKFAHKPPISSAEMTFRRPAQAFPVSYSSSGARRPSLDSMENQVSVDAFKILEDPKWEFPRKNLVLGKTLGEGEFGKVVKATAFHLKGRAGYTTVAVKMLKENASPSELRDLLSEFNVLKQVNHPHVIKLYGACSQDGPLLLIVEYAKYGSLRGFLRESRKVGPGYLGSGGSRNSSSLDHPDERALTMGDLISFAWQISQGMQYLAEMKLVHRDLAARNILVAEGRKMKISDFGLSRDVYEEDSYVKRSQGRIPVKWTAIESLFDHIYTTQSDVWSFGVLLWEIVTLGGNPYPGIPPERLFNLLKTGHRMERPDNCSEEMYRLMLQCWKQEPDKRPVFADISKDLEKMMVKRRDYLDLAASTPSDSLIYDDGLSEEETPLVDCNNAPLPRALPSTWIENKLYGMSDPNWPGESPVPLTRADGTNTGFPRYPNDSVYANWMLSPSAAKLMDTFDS

VEGFR2 = target: T9, VEGFR2 (Homo sapiens, UniProt P35968); experiment: KINOMEscan ScanTK; type: binding
T9 construct: purchased Eurofins DiscoverX KINOMEscan (scanTK)
T9 sequence (P35968 20-1356): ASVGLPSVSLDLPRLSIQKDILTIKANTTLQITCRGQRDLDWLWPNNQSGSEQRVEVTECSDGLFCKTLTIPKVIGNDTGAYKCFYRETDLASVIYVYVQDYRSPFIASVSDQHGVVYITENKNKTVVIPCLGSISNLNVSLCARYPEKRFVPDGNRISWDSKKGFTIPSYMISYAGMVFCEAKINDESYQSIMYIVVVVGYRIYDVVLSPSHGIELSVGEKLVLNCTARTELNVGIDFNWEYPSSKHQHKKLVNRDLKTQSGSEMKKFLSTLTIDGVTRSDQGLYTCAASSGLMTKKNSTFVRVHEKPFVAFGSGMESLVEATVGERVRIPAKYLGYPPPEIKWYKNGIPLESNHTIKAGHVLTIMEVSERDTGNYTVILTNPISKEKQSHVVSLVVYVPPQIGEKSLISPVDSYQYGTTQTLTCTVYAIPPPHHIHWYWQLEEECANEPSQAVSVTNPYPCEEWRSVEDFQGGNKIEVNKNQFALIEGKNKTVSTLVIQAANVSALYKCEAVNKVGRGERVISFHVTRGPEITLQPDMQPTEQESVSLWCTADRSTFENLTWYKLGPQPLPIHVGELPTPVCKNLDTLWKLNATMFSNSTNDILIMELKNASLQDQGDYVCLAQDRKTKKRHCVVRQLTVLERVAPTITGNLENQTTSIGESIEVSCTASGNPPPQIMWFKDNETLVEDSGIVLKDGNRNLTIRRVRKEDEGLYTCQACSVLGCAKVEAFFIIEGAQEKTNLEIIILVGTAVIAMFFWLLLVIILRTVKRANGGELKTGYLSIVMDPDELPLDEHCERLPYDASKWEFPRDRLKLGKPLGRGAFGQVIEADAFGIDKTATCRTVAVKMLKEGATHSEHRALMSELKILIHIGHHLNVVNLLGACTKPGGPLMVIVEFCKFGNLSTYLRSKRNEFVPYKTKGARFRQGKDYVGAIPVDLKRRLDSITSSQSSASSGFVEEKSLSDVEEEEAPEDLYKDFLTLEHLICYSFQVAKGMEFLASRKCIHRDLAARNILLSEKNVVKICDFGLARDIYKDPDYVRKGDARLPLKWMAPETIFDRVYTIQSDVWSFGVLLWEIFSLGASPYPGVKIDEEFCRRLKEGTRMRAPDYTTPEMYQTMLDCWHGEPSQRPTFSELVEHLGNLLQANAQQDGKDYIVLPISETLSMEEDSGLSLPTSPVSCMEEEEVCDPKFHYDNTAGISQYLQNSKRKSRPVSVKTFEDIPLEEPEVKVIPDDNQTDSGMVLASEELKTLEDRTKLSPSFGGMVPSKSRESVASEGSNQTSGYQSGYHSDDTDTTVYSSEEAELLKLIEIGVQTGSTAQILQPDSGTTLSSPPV

TMD8 cells = experiment: RNA-seq gene expression; conditions: TMD8, 1 μM, 8 h; for number of genes reduced vs DMSO: FDR < 0.01, log2FC < -0.5; for number of genes increased vs DMSO: FDR < 0.01, log2FC > 0.5
[2] = target: T10, ABL1(M351T)-phosphorylated (Homo sapiens, UniProt P00519, M351T); experiment: KINOMEscan ScanTK; type: binding
T10 construct: purchased Eurofins DiscoverX KINOMEscan (scanTK)

[3] = target: T11, ABL1(Q252H)-phosphorylated (Homo sapiens, UniProt P00519, Q252H); experiment: KINOMEscan ScanTK; type: binding
T11 construct: purchased Eurofins DiscoverX KINOMEscan (scanTK)

[4] = target: T12, ABL1(T315I)-phosphorylated (Homo sapiens, UniProt P00519, T315I); experiment: KINOMEscan ScanTK; type: binding
T12 construct: purchased Eurofins DiscoverX KINOMEscan (scanTK)

EGFR(L861Q) = target: T13, EGFR(L861Q) (Homo sapiens, UniProt P00533, L861Q); experiment: KINOMEscan ScanTK; type: binding
T13 construct: purchased Eurofins DiscoverX KINOMEscan (scanTK)
T13 sequence (P00533 25-1210 L861Q): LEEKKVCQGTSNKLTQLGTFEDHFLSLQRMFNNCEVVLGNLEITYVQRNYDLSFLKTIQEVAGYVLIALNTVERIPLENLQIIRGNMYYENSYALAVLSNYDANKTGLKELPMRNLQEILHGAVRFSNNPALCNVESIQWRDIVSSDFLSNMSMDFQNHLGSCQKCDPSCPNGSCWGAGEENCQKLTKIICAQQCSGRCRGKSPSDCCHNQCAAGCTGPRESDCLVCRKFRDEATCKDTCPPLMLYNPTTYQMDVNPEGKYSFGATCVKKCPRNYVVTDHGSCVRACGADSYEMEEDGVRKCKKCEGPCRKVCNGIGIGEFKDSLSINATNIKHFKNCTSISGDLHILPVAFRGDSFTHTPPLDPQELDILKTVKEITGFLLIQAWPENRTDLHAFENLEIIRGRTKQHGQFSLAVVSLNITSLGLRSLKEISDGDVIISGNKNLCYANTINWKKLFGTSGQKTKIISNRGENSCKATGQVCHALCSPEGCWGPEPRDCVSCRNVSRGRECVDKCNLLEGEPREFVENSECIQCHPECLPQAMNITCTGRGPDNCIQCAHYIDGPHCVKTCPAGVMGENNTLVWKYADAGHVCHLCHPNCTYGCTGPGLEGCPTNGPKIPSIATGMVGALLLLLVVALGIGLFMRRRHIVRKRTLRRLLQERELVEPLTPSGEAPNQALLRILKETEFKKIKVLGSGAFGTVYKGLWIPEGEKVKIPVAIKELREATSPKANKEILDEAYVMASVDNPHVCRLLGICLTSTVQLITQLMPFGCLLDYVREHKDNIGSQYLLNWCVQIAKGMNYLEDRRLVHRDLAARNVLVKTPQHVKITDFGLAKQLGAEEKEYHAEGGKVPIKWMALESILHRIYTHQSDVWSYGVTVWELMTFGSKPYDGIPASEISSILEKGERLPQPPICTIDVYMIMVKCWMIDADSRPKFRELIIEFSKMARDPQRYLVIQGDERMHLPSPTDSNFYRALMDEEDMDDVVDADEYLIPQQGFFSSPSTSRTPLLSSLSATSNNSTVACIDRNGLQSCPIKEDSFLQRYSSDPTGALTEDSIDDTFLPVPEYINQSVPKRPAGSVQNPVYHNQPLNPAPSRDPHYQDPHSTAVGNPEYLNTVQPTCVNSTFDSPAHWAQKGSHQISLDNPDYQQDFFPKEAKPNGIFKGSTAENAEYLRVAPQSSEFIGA

KIT(A829P) = target: T14, KIT(A829P) (Homo sapiens, UniProt P10721, A829P); experiment: KINOMEscan ScanTK; type: binding
T14 construct: purchased Eurofins DiscoverX KINOMEscan (scanTK)

KIT(V559D,V654A) = target: T15, KIT(V559D,V654A) (Homo sapiens, UniProt P10721, V559D/V654A); experiment: KINOMEscan ScanTK; type: binding
T15 construct: purchased Eurofins DiscoverX KINOMEscan (scanTK)

wild-type BTK = wild-type BTK (Homo sapiens, UniProt Q06187); experiment: NanoBRET target engagement assay in HEK293 cells
[5] = @1000nM, BLK, read-out: %Control
[6] = BLK, read-out: %Control @1000nM
[7] = @1000nM, ERBB3, read-out: %Control
[8] = ERBB3, read-out: %Control @1000nM

Structure (SMILES): C=CC(=O)N1CCC[C@@H](n2nc(-c3ccc(Oc4ccccc4)cc3)c3c(N)ncnc32)C1 [Compound 1g, Ibrutinib, reference compound]
remaining binding at 1 µM ([1]; @1000nM, read-out: %Control): 77% | remaining binding at 1 µM ([1]; read-out: %Control @1000nM): 77% | remaining binding at 1 µM (AXL; @1000nM, read-out: %Control): 75% | remaining binding at 1 µM (AXL; read-out: %Control @1000nM): 75% | remaining binding at 1 µM (BLK; [5]): 0.05% | remaining binding at 1 µM (BLK; [6]): 0.05% | inhibition at 1 µM (BLK; ScanTK, 1 μM): > 99% | remaining binding at 1 µM (ERBB3; [7]): 0% | remaining binding at 1 µM (ERBB3; [8]): 0% | inhibition at 1 µM (ERBB3; read-out: % inhibition, ERBB3): > 99% | remaining binding at 1 µM (FGFR2; @1000nM, read-out: %Control): 39% | remaining binding at 1 µM (FGFR2; read-out: %Control @1000nM): 39% | remaining binding at 1 µM (FRK; @1000nM, read-out: %Control): 9.3% | remaining binding at 1 µM (FRK; read-out: %Control @1000nM): 9.3% | remaining binding at 1 µM (FYN; @1000nM, read-out: %Control): 9.6% | remaining binding at 1 µM (FYN; read-out: %Control @1000nM): 9.6% | remaining binding at 1 µM (RET(M918T); @1000nM, read-out: %Control): 14% | remaining binding at 1 µM (RET(M918T); read-out: %Control @1000nM): 14% | remaining binding at 1 µM (VEGFR2; @1000nM, read-out: %Control): 71% | remaining binding at 1 µM (VEGFR2; read-out: %Control @1000nM): 71% | number of genes unchanged vs DMSO (TMD8 cells): 14846 genes | number of genes reduced vs DMSO (TMD8 cells): 125 genes | number of genes increased vs DMSO (TMD8 cells): 76 genes

difference in %Control from compound Ib at 1 µM ([2]; @1000nM): 1% | remaining binding at 1 µM ([2]; @1000nM, read-out: %Control): 66% | remaining binding at 1 µM ([2]; read-out: %Control @1000nM): 66% | difference in %Control versus reference Ib at 1 µM ([3]; @1000nM, read-out: % difference (compound - Ib %Control)): -2% | remaining binding at 1 µM ([3]; @1000nM, read-out: %Control): 92% | remaining binding at 1 µM ([3]; read-out: %Control @1000nM): 92% | difference in %Control versus compound Ib at 1 µM ([4]; @1000nM): -11% | remaining binding at 1 µM ([4]; @1000nM, read-out: %Control): 68% | remaining binding at 1 µM ([4]; read-out: %Control @1000nM): 68% | difference in %Control from compound Ib at 1 µM ([1]; @1000nM): 1% | remaining binding at 1 µM ([1]; @1000nM, read-out: %Control): 78% | remaining binding at 1 µM ([1]; read-out: %Control @1000nM): 78% | difference in %Control versus compound Ib at 1 µM (AXL; @1000nM): 25% | remaining binding at 1 µM (AXL; @1000nM, read-out: %Control): 100% | remaining binding at 1 µM (AXL; read-out: %Control @1000nM): 100% | difference in %Control vs reference Ib at 1 µM (BLK; @1000nM, BLK, read-out: % difference (compound - Ib %Control)): 0.35% | remaining binding at 1 µM (BLK; [5]): 0.4% | remaining binding at 1 µM (BLK; [6]): 0.4% | difference in % of control versus compound Ib at 1 µM (EGFR(L861Q); @1000nM): 56.2% | remaining binding at 1 µM (EGFR(L861Q); @1000nM, read-out: %Control): 57% | remaining binding at 1 µM (EGFR(L861Q); read-out: %Control @1000nM): 57% | % of control difference from compound Ib at 1 µM (ERBB3; @1000nM, ERBB3): 2.3% | remaining binding at 1 µM (ERBB3; [7]): 2.3% | remaining binding at 1 µM (ERBB3; [8]): 2.3% | difference in %Control vs compound Ib at 1 µM (FGFR2; @1000nM): 47% | remaining binding at 1 µM (FGFR2; @1000nM, read-out: %Control): 86% | remaining binding at 1 µM (FGFR2; read-out: %Control @1000nM): 86% | difference in %Control versus compound Ib at 1 µM (FRK; @1000nM): 69.7% | remaining binding at 1 µM (FRK; @1000nM, read-out: %Control): 79% | remaining binding at 1 µM (FRK; read-out: %Control @1000nM): 79% | difference in % of control versus compound Ib at 1 µM (FYN; @1000nM): 16.4% | remaining binding at 1 µM (FYN; @1000nM, read-out: %Control): 26% | remaining binding at 1 µM (FYN; read-out: %Control @1000nM): 26% | remaining binding at 1 µM (KIT(A829P); @1000nM, read-out: %Control): 70% | remaining binding at 1 µM (KIT(A829P); read-out: %Control @1000nM): 70% | remaining binding at 1 µM (KIT(V559D,V654A); @1000nM, read-out: %Control): 86% | remaining binding at 1 µM (KIT(V559D,V654A); read-out: %Control @1000nM): 86% | remaining binding at 1 µM (RET(M918T); @1000nM, read-out: %Control): 49% | remaining binding at 1 µM (RET(M918T); read-out: %Control @1000nM): 49% | remaining binding at 1 µM (VEGFR2; @1000nM, read-out: %Control): 90% | remaining binding at 1 µM (VEGFR2; read-out: %Control @1000nM): 90% | IC50 (wild-type BTK): 38 ± 6 nM
Structure (SMILES): COC(=O)c1cnc(S(C)(=O)=O)nc1N1CCCC(n2nc(-c3ccc(Oc4ccccc4)cc3)c3c(N)ncnc32)C1 (centres unmarked) [Compound 8b, Methyl 4-(3-(4-Amino-3-(4-phenoxyphenyl)-1H-pyrazolo[3,4-d]pyrimidin-1-yl)piperidin-1-yl)-2-(methylsulfonyl)pyrimidine-5-carboxylate]
number of genes unchanged vs DMSO (TMD8 cells): 15031 genes | number of genes reduced vs DMSO (TMD8 cells): 15 genes | number of genes increased vs DMSO (TMD8 cells): 1 genes

Source: article PMC11345841, “Exploring 2-Sulfonylpyrimidine Warheads as Acrylamide Surrogates for Targeted Covalent Inhibition: A BTK Story” (Journal of Medicinal Chemistry, 2024)
